Patent US10758534B2 (Vertex Pharmaceuticals Incorporated, priority 2014, dated 2020)
Where two headings read alike, the source gives them in different places.

Biological target: T1, F508del (Homo sapiens, UniProt P13569, DEL508-508)
T1 construct: expressed in transfected cells
Experiment: Protocol 2: FRET membrane potential optical assay (VIPR), identification of correction compounds
Type: cell-based
Text: Membrane potential optical methods for assaying F508del modulation properties of compounds.
These voltage sensitive assays are based on the change in fluorescence resonant energy transfer (FRET) between the membrane-soluble, voltage-sensitive dye, DiSBAC2(3), and a fluorescent phospholipid, CC2-DMPE, which is attached to the outer leaflet of the plasma membrane and acts as a FRET donor. Changes in membrane potential (Vm) cause the negatively charged DiSBAC2(3) to redistribute across the plasma membrane and the amount of energy transfer from CC2-DMPE changes accordingly. The changes in fluorescence emission were monitored using VIPR™ II, which is an integrated liquid handler and fluorescent detector designed to conduct cell-based screens in 96- or 384-well microtiter plates.
To identify small molecules that correct the trafficking defect associated with F508del; a single-addition HTS assay format was developed. The cells were incubated in serum-free medium for 16 hrs at 37° C. in the presence or absence (negative control) of test compound. As a positive control, cells plated in 384-well plates were incubated for 16 hrs at 27° C. to “temperature-correct” F508del. The cells were subsequently rinsed 3× with Krebs Ringers solution and loaded with the voltage-sensitive dyes. To activate F508del, 10 μM forskolin and the CFTR potentiator, genistein (20 μM), were added along with Cl^−-free medium to each well. The addition of Cl^−-free medium promoted Cl^− efflux in response to F508del activation and the resulting membrane depolarization was optically monitored using the FRET-based voltage-sensor dyes.
• Bath Solution #1: (in mM) NaCl 160, KCl 4.5, CaCl2 2, MgCl2 1, HEPES 10, pH 7.4 with NaOH. • Chloride-free bath solution: Chloride salts in Bath Solution #1 (above) are substituted with gluconate salts. • CC2-DMPE: Prepared as a 10 mM stock solution in DMSO and stored at −20° C. • DiSBAC2(3): Prepared as a 10 mM stock in DMSO and stored at −20° C. Cell Culture
NIH3T3 mouse fibroblasts stably expressing F508del are used for optical measurements of membrane potential. The cells are maintained at 37° C. in 5% CO2 and 90% humidity in Dulbecco's modified Eagle's medium supplemented with 2 mM glutamine, 10% fetal bovine serum, 1×NEAA, β-ME, 1× pen/strep, and 25 mM HEPES in 175 cm^2 culture flasks. For all optical assays, the cells were seeded at 30,000/well in 384-well matrigel-coated plates and cultured for 2 hrs at 37° C. before culturing at 27° C. for 24 hrs for the potentiator assay. For the correction assays, the cells are cultured at 27° C. or 37° C. with and without compounds for 16-24 hours.

[1] = Table 3, compounds of Table 1 as modulators of CFTR activity, protocol not stated
[2] = F508del CFTR modulator activity, compounds of Table 1, read-out: EC30
[3] = F508del CFTR modulator activity, compounds of Table 1

T1 sequence (P13569 with tags, fused parts or gaps DEL508-508): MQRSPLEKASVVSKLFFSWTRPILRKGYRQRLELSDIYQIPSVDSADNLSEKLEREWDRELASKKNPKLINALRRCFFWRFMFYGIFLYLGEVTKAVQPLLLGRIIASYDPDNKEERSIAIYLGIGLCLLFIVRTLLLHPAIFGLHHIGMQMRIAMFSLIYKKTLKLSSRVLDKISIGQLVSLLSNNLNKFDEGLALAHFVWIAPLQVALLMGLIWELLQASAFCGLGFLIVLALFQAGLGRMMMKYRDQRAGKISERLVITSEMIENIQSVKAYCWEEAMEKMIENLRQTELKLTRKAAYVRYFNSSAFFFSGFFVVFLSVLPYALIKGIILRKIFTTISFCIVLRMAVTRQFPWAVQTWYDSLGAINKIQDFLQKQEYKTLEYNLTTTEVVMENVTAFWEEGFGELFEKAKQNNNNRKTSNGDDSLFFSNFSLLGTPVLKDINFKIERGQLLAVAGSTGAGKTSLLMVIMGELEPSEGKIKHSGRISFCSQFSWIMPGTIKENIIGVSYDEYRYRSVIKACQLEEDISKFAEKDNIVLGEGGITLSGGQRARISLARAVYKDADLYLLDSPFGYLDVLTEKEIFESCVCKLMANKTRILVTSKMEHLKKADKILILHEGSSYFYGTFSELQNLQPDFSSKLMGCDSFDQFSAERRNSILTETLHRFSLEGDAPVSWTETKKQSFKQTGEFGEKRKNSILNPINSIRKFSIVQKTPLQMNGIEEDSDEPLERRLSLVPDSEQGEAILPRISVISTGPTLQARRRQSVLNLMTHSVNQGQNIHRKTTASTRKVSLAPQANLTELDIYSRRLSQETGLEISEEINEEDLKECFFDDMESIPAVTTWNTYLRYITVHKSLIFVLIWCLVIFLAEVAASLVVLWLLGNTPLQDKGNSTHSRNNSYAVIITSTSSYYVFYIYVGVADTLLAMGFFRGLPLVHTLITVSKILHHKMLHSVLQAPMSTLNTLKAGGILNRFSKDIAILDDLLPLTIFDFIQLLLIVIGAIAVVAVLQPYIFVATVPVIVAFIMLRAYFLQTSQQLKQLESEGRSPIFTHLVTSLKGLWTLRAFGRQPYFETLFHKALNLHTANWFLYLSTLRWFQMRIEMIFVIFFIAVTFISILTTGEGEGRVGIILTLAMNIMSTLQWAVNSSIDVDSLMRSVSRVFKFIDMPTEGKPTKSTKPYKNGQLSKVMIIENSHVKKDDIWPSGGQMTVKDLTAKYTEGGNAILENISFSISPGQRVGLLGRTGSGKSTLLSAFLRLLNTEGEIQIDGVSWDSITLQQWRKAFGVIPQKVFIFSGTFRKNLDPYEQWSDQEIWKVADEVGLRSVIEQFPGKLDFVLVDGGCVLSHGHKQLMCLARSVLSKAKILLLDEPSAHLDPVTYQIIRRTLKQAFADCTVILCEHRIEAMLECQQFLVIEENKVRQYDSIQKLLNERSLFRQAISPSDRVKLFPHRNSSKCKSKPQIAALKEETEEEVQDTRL

| SMILES | EC30 [2] | other results |
| --- | --- | --- |
| Cc1cc(C)c(Cn2nc(C(C)(C)C)cc2C(=O)C(C)S(=O)(=O)c2ccccc2)c(C)c1 (racemic) [Compound 139, 2-(benzenesulfonyl)-1-[5-tert-butyl-2-[(2,4,6-trimethylphenyl)methyl]pyrazol-3-yl]propan-1-one] | – | EC30 [1]: +++ (“+++” means <3 uM) |
| Cc1cc(C)c(Oc2nc(C(C)(C)C)ccc2C(=O)NS(=N)(=O)c2cccc(N)c2)c(C)c1 (single isomer, unassigned) [Compound 19, N-[(3-aminophenyl)sulfonimidoyl]-6-tert-butyl-2-(2,4,6-trimethylphenoxy)pyridine-3-carboxamide] | – | EC30 [1]: +++ (“+++” means <3 uM) |
| Cc1cc(C)c(Oc2nc(C(C)(C)C)ccc2C(=O)N[S@](=N)(=O)c2cccc(N)c2)c(C)c1 (single isomer, unassigned) [Compound 53, N-[(3-aminophenyl)sulfonimidoyl]-6-tert-butyl-2-(2,4,6-trimethylphenoxy)pyridine-3-carboxamide] | – | EC30 [1]: +++ (“+++” means <3 uM) |
| CC(C)(C)c1ccc(C(=O)NS(=O)(=O)c2cccc(N)n2)c(N2CCC(C3CC3)C2(C)C)n1 (single isomer, unassigned) [Compound 2022, N-[(6-amino-2-pyridyl)sulfonyl]-6-tert-butyl-2-(3-cyclopropyl-2,2-dimethyl-pyrrolidin-1-yl)pyridine-3-carboxamide] | < 3000 nM | – |
| CC(C)COc1cc(F)cc(-c2ccc(C(=O)NS(=O)(=O)c3cccc(N)n3)c(C3=CC(C)CC3(C)C)n2)c1 (single isomer, unassigned) [Compound 2039, N-[(6-amino-2-pyridyl)sulfonyl]-6-(3-fluoro-5-isobutoxy-phenyl)-2-(3,5,5-trimethylcyclopenten-1-yl)pyridine-3-carboxamide] | < 3000 nM | – |
| CCC1(C)C[C@@H](C)CN1c1nc(-c2cc(F)cc(OCC(C)C)c2)ccc1C(=O)NS(=O)(=O)c1cccc(N)n1 (single isomer, unassigned) [Compound 2058, N-[(6-amino-2-pyridyl)sulfonyl]-2-(2-ethyl-2,4-dimethyl-pyrrolidin-1-yl)-6-(3-fluoro-5-isobutoxy-phenyl)pyridine-3-carboxamide] | < 3000 nM | – |
| CC(C)COc1cc(F)cc(-c2ccc(C(=O)NS(=O)(=O)c3cccc(N)n3)c(N3CCC(C)C(C)C3)n2)c1 (single isomer, unassigned) [Compound 2062, N-[(6-amino-2-pyridyl)sulfonyl]-2-(3,4-dimethyl-1-piperidyl)-6-(3-fluoro-5-isobutoxy-phenyl)pyridine-3-carboxamide] | < 3000 nM | – |
| C[C@@H]1CN(c2nc(C(C)(C)C)c([C@@H](O)[C@H](O)C3CCCC3)cc2C(=O)NS(=O)(=O)c2cccc(N)n2)C(C)(C)C1 (single isomer, unassigned) [Compound 2069] | < 3000 nM | – |
| C[C@@H]1CN(c2nc(C3CCC(C(F)(F)F)CC3)ccc2C(=O)NS(=O)(=O)c2cccnc2N)C(C)(C)C1 (single isomer, unassigned) [Compound 2077] | < 3000 nM | – |
| CC(C)COc1cc(F)cc(-c2ccc(C(=O)NS(=O)(=O)c3cccc(N)n3)c(C3=CC(C)CC3(C)C)n2)c1 (single isomer, unassigned) [Compound 2081, N-[(6-amino-2-pyridyl)sulfonyl]-6-(3-fluoro-5-isobutoxy-phenyl)-2-(3,5,5-trimethylcyclopenten-1-yl)pyridine-3-carboxamide] | – | EC30 [3]: +++ (“+++” means <3 uM) |
| CC(C)COc1cc(F)cc(-c2ccc(C(=O)NS(=O)(=O)c3cccc(N)n3)c(N3CCC(C)C(C)C3)n2)c1 (single isomer, unassigned) [Compound 2178, N-[(6-amino-2-pyridyl)sulfonyl]-2-(3,4-dimethyl-1-piperidyl)-6-(3-fluoro-5-isobutoxy-phenyl)pyridine-3-carboxamide] | – | EC30 [3]: +++ (“+++” means <3 uM) |
| CC(C)COc1ccn(-c2ccc(C(=O)NS(=O)(=O)c3cccnc3N)c(N3CC(C)CC34CCC4)n2)n1 (single isomer, unassigned) [Compound 2194, N-[(2-amino-3-pyridyl)sulfonyl]-6-(3-isobutoxypyrazol-1-yl)-2-(6-methyl-8-azaspiro[3.4]octan-8-yl)pyridine-3-carboxamide] | < 3000 nM | – |
| CCC1(C)CC(C)CN1c1nc(-c2cc(F)cc(OCC(C)C)c2)ccc1C(=O)NS(=O)(=O)c1cccc(N)n1 (single isomer, unassigned) [Compound 2213, N-[(6-amino-2-pyridyl)sulfonyl]-2-(2-ethyl-2,4-dimethyl-pyrrolidin-1-yl)-6-(3-fluoro-5-isobutoxy-phenyl)pyridine-3-carboxamide] | < 3000 nM | – |
| CC(C)(C)c1ccc(C(=O)NS(=O)(=O)c2cccc(N)n2)c(N2CCC(C3CCOCC3)C2(C)C)n1 (single isomer, unassigned) [Compound 2266, N-[(6-amino-2-pyridyl)sulfonyl]-6-tert-butyl-2-(2,2-dimethyl-3-tetrahydropyran-4-yl-pyrrolidin-1-yl)pyridine-3-carboxamide] | < 3000 nM | – |
| CC(C)COc1cc(F)cc(-c2ccc(C(=O)NS(=O)(=O)c3cccc(N)n3)c(N3CC(C)CC34CCC4)n2)c1 (single isomer, unassigned) [Compound 2269, N-[(6-amino-2-pyridyl)sulfonyl]-6-(3-fluoro-5-isobutoxy-phenyl)-2-(6-methyl-8-azaspiro[3.4]octa N-8-yl)pyridine-3-carboxamide] | < 3000 nM | – |
| CC(C)COc1cc(F)cc(-c2ccc(C(=O)NS(=O)(=O)c3cccc(N)n3)c(N3C[C@H](C(F)(F)F)CC3(C)C)n2)c1 (single isomer, unassigned) [Compound 2271, N-[(6-amino-2-pyridyl)sulfonyl]-2-(2,2-dimethyl-4-(trifluoromethyl)pyrrolidin-1-yl)-6-(3-fluoro-5-isobutoxy-phenyl)pyridine-3-carboxamide] | < 3000 nM | – |
| CC(C)COc1cc(F)cc(-c2ccc(C(=O)NS(=O)(=O)N3CC[C@@H](N)C3)c(N3CCCC3(C)Cc3ccccc3)n2)c1 (single isomer, unassigned) [Compound 2325] | < 3000 nM | – |
| CC1CN(c2nc(-n3ccc(OCC(C)(C)C)n3)ccc2C(=O)NS(=O)(=O)c2cccnc2N)C2(CCC2)C1 (single isomer, unassigned) [Compound 2358, N-[(2-amino-3-pyridyl)sulfonyl]-6-[3-(2,2-dimethylpropoxy)pyrazol-1-yl]-2-[6-methyl-8-azaspiro[3.4]octan-8-yl]pyridine-3-carboxamide] | < 3000 nM | – |
| CC(C)COc1cc(F)cc(-c2ccc(C(=O)NS(=O)(=O)c3cccc(N)n3)c(C3CC(C)(C)CC3(C)C)n2)c1 (single isomer, unassigned) [Compound 2374, N-[(6-amino-2-pyridyl)sulfonyl]-6-(3-fluoro-5-isobutoxy-phenyl)-2-(2,2,4,4-tetramethylcyclopentyl)pyridine-3-carboxamide] | < 3000 nM | – |
| CC(C)COc1cc(F)cc(-c2ccc(C(=O)NS(=O)(=O)c3cccc(N)n3)c(N3CC(C)CCC3C)n2)c1 (single isomer, unassigned) [Compound 2451, N-[(6-amino-2-pyridyl)sulfonyl]-2-(2,5-dimethyl-1-piperidyl)-6-(3-fluoro-5-isobutoxy-phenyl)pyridine-3-carboxamide] | < 3000 nM | – |
| CC(C)COc1cc(F)cc(-c2ccc(C(=O)NS(=O)(=O)N3CCC(N)C3)c(N3CCCC3c3ccccc3)n2)c1 (single isomer, unassigned) [Compound 2477] | < 3000 nM | – |
| CC(C)COc1cc(F)cc(-c2ccc(C(=O)NS(=O)(=O)c3cccc(N)n3)c(C3CC(C)(C)CC3(C)C)n2)c1 (single isomer, unassigned) [Compound 2492, N-[(6-amino-2-pyridyl)sulfonyl]-6-(3-fluoro-5-isobutoxy-phenyl)-2-(2,2,4,4-tetramethylcyclopentyl)pyridine-3-carboxamide] | – | EC30 [3]: +++ (“+++” means <3 uM) |
| CC(C)COc1cc(F)cc(-c2ccc(C(=O)NS(=O)(=O)c3cccc(N)n3)c(N3CCC(C)C(C)C3)n2)c1 (single isomer, unassigned) [Compound 2532, N-[(6-amino-2-pyridyl)sulfonyl]-2-(3,4-dimethyl-1-piperidyl)-6-(3-fluoro-5-isobutoxy-phenyl)pyridine-3-carboxamide] | – | EC30 [3]: +++ (“+++” means <3 uM) |
